Laboratory results as given in patent US20120035247A1, “RNA Interference Mediated Inhibition of Signal Transducer and Activator of Transcription 6 (STAT6) Gene Expression Using Short Interfering Nucleic Acid (siNA)” (Merck Sharp & Dohme Corp., priority 2009, published 2012).
[invAb] = inverted abasic unit; m = 2'-O-methyl; r = 2'-OH (RNA); f = 2'-fluoro

Experiments:
STAT6 mRNA [1] = test: STAT6 siNA screen and dose response in human A549 cells, STAT6 mRNA by quantitative RT-PCR (Taqman); format: cell-based; settings: for % KD STAT6 mRNA 10 nM / IC50: Table 4, human A549 cells; for % KD STAT6 mRNA 10 nM / IC50 / % KD STAT6: mean ± S.D.; for % KD STAT6 10 nM: Table 5, A549 cells, three experiments, mean ± standard deviation; for % KD STAT6: human A549 cells, 10 nM siNA, 24 hrs, normalized to GAPDH and non-targeting control, n = 3
Method in brief: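 A549 cells were transfected with siNA–RNAiMax complexes at a final 10 nM siNA and incubated 24 h without a medium change. STAT6 mRNA was measured by TaqMan qRT-PCR on cell lysates. Knock-down was calculated by the comparative Ct (ΔΔCt) method against the non-targeting control siNA, with relative expression taken as 2^−ΔΔCt.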

STAT6 mRNA [2] = test: STAT6 siNA screen in mouse NIH 3T3 cells, STAT6 mRNA by quantitative RT-PCR (Taqman); format: cell-based; settings: mouse NIH3T3 cells, 10 nM siNA, 24 hrs, normalized to GAPDH and non-targeting control, n = 2
Method in brief: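 NIH 3T3 cells, 5000/well, transfected after 24 h with siNA (10 nM final) via RNAiMax and harvested 24 h later. STAT6 mRNA quantified by TaqMan RT-qPCR with GAPDH; knock-down by comparative Ct (2^−ΔΔCt) against non-targeting control siNA.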

[3] = system: human STAT4 mRNA transcript; test: STAT4 specificity screen in human A549 cells, STAT4 mRNA by quantitative RT-PCR; format: cell-based; settings: three experiments, mean ± standard deviation
Description: A549 (human; ATCC cat# CCL-185): Cells were cultured at 37° C. in the presence of 5% CO2 and grown in Ham's F12K medium with 2 mM L-glutamine adjusted to contain 1.5 g/L sodium bicarbonate and supplemented with fetal bovine serum at a final concentration of 10%, 100 μg/mL of streptomycin, and 100 U/mL penicillin.
A series of probes and primers were used to detect the various mRNA transcripts of the genes of 13-Actin (human cell line only), and of STATE and GAPDH in mouse and human cell lines. All Taqman probes and primers for the experiments here-in described were supplied as pre-validated sets by Applied Biosystems, Inc. (see Table 2).
The assays were performed on an ABI 7900 instrument, according to the manufacturer's instructions. A TaqMan Gene Expression Master Mix (provided in the Cells-to-CTT™, Applied Biosystems, Cat #4399002) was used. The PCR reactions were carried out at 50° C. for 2 min, 95° C. for 20 min followed by 40 cycles at 95° C. for 15 secs and 60° C. for 1 min.
The expression level of the gene of interest and % knock-down was calculated using Comparative Ct method:
ΔΔCt=ΔCt(Target siNA)−ΔCt(NTC)
Relative expression level=2^−ΔΔCt
The non-targeting control siNA was, unless otherwise indicated, chosen as the value against which to calculate the % knock-down, because it is the most relevant control.
The siNAs from Table 4 were tested in human A549 cell line at a lower concentration (1 nM versus the original screening concentration of 10 nM) to determine the effect of the STATE siRNAs on the mRNA transcript of human STAT4.

eosinophilia and AHR = settings: rat model of allergic disease; cited from earlier work
mouse spleen T cells = settings: in vitro; cited from earlier work

Compound: 29999-DC: STAT6 siNA duplex; sense SEQ ID NO: 62, antisense SEQ ID NO: 63; target GUUCGAUUCCUGUUGGGCU, site 1148 (sense GUUCGAUUCCUGUUGGGCUTT; antisense AGCCCAACAGGAAUCGAACUU; sense: DNA at AGT, 2'-fluoro at CU, [invAb] at 5' end, 3' end, backbone not given here; antisense: sugars from the 5' end rrrffmmfmmmmmffmmmfmm, backbone not given here) [STAT6 siNA duplex; target GUUCGAUUCCUGUUGGGCU, site 1148]
- % KD STAT6 mRNA 10 nM (STAT6 mRNA [1]): 72.8 ± 1^ %
- IC50 (STAT6 mRNA [1]): 48.7 ± 21.7 pM
- % KD STAT6 10 nM (STAT6 mRNA [1]): 72.8 ± 1.0%
- % KD STAT6 (STAT6 mRNA [1]): 72.8 ± 1%
- % KD STAT6 (STAT6 mRNA [2]): 53.4 ± 3.1%
- % KD STAT4 1 nM [3]: −17.4 ± 20.9%

Compound: 30005-DC: STAT6 siNA duplex; sense SEQ ID NO: 74, antisense SEQ ID NO: 75; target CUGCACAGCUUGAUAGAAA, site 755 (sense CUGCACAGCUUGAUAGAAATT; antisense UUUCUAUCAAGCUGUGCAGUU; sense: DNA at AGT, 2'-fluoro at CU, [invAb] at 5' end, 3' end, backbone not given here; antisense: sugars from the 5' end rrrffmffmmmffmfmfmmmm, backbone not given here) [STAT6 siNA duplex; target CUGCACAGCUUGAUAGAAA, site 755]
- % KD STAT6 mRNA 10 nM (STAT6 mRNA [1]): 70 ± 8.9%
- IC50 (STAT6 mRNA [1]): 23.2 ± 10.3 pM
- % KD STAT6 10 nM (STAT6 mRNA [1]): 70.0 ± 8.9%
- % KD STAT6 (STAT6 mRNA [1]): 70 ± 8.9%
- % KD STAT6 (STAT6 mRNA [2]): −8 ± 0.5%
- % KD STAT4 1 nM [3]: 13.2 ± 14.4%

Compound: 30024-DC: STAT6 siNA duplex; sense SEQ ID NO: 112, antisense SEQ ID NO: 113; target CGCUGUCUCCGGAGCUACU, site 1850 (sense CGCUGUCUCCGGAGCUACUTT; antisense AGUAGCUCCGGAGACAGCGUU; sense: DNA at AGT, 2'-fluoro at CU, [invAb] at 5' end, 3' end, backbone not given here; antisense: sugars from the 5' end rrrmmffffmmmmmfmmfmmm, backbone not given here) [STAT6 siNA duplex; target CGCUGUCUCCGGAGCUACU, site 1850]
- % KD STAT6 (STAT6 mRNA [1]): 38.9 ± 11.2%
- % KD STAT6 (STAT6 mRNA [2]): 19.5 ± 5.6%

Compound: 30025-DC: STAT6 siNA duplex; sense SEQ ID NO: 114, antisense SEQ ID NO: 115; target AACGCUGUCUCCGGAGCUA, site 1848 (sense AACGCUGUCUCCGGAGCUATT; antisense UAGCUCCGGAGACAGCGUUUU; sense: DNA at AGT, 2'-fluoro at CU, [invAb] at 5' end, 3' end, backbone not given here; antisense: sugars from the 5' end rrrffffmmmmmfmmfmffmm, backbone not given here) [STAT6 siNA duplex; target AACGCUGUCUCCGGAGCUA, site 1848]
- % KD STAT6 (STAT6 mRNA [1]): 48.1 ± 7.5%
- % KD STAT6 (STAT6 mRNA [2]): 34.2 ± 1.8%

Compound: 30026-DC: STAT6 siNA duplex; sense SEQ ID NO: 116, antisense SEQ ID NO: 117; target GCAGUGGUUUGAUGGUGUC, site 1816 (sense GCAGUGGUUUGAUGGUGUCTT; antisense GACACCAUCAAACCACUGCUU; sense: DNA at AGT, 2'-fluoro at CU, [invAb] at 5' end, 3' end, backbone not given here; antisense: sugars from the 5' end rrrmffmffmmmffmffmfmm, backbone not given here) [STAT6 siNA duplex; target GCAGUGGUUUGAUGGUGUC, site 1816]
- % KD STAT6 (STAT6 mRNA [1]): 58.4 ± 8.1%
- % KD STAT6 (STAT6 mRNA [2]): 59.8 ± 1.1%

Compound: 30027-DC: STAT6 siNA duplex; sense SEQ ID NO: 118, antisense SEQ ID NO: 119; target AAGACCCGGGCAUCGCUGA, site 1025 (sense AAGACCCGGGCAUCGCUGATT; antisense UCAGCGAUGCCCGGGUCUUUU; sense: DNA at AGT, 2'-fluoro at CU, [invAb] at 5' end, 3' end, backbone not given here; antisense: sugars from the 5' end rrrmfmmfmfffmmmffffmm, backbone not given here) [STAT6 siNA duplex; target …UCGCUGA, site 1025]
- % KD STAT6 (STAT6 mRNA [1]): −0.8 ± 12.4%
- % KD STAT6 (STAT6 mRNA [2]): −3.3 ± 3.1%

Compound: 30028-DC: STAT6 siNA duplex; sense SEQ ID NO: 120, antisense SEQ ID NO: 121; target CUGCCAAAGACCUGUCCAU, site 2049 (sense CUGCCAAAGACCUGUCCAUTT; antisense AUGGACAGGUCUUUGGCAGUU; sense: DNA at AGT, 2'-fluoro at CU, [invAb] at 5' end, 3' end, backbone not given here; antisense: sugars from the 5' end rrrmmfmmmfffffmmfmmmm, backbone not given here) [STAT6 siNA duplex; target CU…UGUCCAU, site 2049]
- % KD STAT6 (STAT6 mRNA [1]): 29.5 ± 6.4%
- % KD STAT6 (STAT6 mRNA [2]): 31.1 ± 4.3%

Compound: 30029-DC: STAT6 siNA duplex; sense SEQ ID NO: 122, antisense SEQ ID NO: 123; target GUGUCCUGGACCUCACCAA, site 1830 (sense GUGUCCUGGACCUCACCAATT; antisense UUGGUGAGGUCCAGGACACUU; sense: DNA at AGT, 2'-fluoro at CU, [invAb] at 5' end, 3' end, backbone not given here; antisense: sugars from the 5' end rrrmfmmmmfffmmmmfmfmm, backbone not given here) [STAT6 siNA duplex; target GUGUCCUGGACCUCACCAA, site 1830]
- % KD STAT6 (STAT6 mRNA [1]): 13.2 ± 7.8%
- % KD STAT6 (STAT6 mRNA [2]): −17.5 ± 12.8%

Compound: NC(=O)c1cnc(Nc2ccc(N3CCOCC3)cc2)nc1NCc1c(F)ccc(F)c1F [YM341619]
- AHR (eosinophilia and AHR): inhibited
- eosinophilia (eosinophilia and AHR): inhibited
- differentiation of mouse spleen T cells into the Th2 phenotype (mouse spleen T cells): inhibited
